The values that follow come from ChEMBL document CHEMBL6103598, “One-Pot Synthesis of Novel Tetrasubstituted α-Aminophosphonates Derived from α-Methylphosphoserine and In Vivo Evaluation as Anti-Inflammatory Agents” (J Med Chem, 2025).

In series [1] the test system is Mus musculus. Nature of the series: Potency index, ratio of Indomethacin ED50 to test compound ED50 for antiinflammatory activity against TPA-induced ear edema in female CD1 mouse model assessed as reduction in ear edema by measuring effective dose measured per ear incubated for 4 hrs administered topically. The class given is functional.
A short description of series [2]: Octanol/water partition coefficient, logP of compound by shake flask method. The series is classed as physicochemical.
The subject of series [3] is Mus musculus. Nature of the series: Antiinflammatory activity against CFA-induced paw edema in female CD1 mouse model assessed as reduction in paw swelling at 10 mg/kg, po preincubated with compound for 30 mins followed by CFA stimulation and measured after 24 hrs. The series is classed as functional, organism-based. To be noted: time 24.5 hrs.
The test system of series [4] is Mus musculus. Put plainly: Antiinflammatory activity against TPA-induced ear edema in female CD1 mouse model assessed as reduction in ear edema administered topically incubated for 4 hrs measured per ear. The class given is functional, organism-based.
Series [5] concerns Mus musculus. Nature of the series: Antiinflammatory activity against TPA-induced ear edema in female CD1 mouse model assessed as reduction in ear edema by measuring effective dose measured per ear incubated for 4 hrs administered topically. The class given is functional.
Series [6] relates to Mus musculus. Nature of the series: Antiinflammatory activity against TPA-induced ear edema in female CD1 mouse model assessed as reduction in ear edema by measuring maximum efficacy at 0.25 to 1.25 mg measured per ear incubated for 4 hrs administered topically relative to control. The settings on record: CD1, topical, dose 0.25-1.25 mg. The class given is functional.
For series [7], the system named is Mus musculus. Nature of the series: Antiinflammatory activity against CFA-induced paw edema in female CD1 mouse model assessed as reduction in paw swelling at 10 mg/kg, po preincubated with compound for 30 mins followed by CFA stimulation and measured after 2 to 6 hrs. The series is classed as functional, organism-based. The settings on record: time 2.5-6.5 hrs.

In series [8] the test system is Mus musculus. Put plainly: Antiinflammatory activity against CFA-induced paw edema in female CD1 mouse model assessed as reduction in paw swelling by measuring AUC at 10 mg/kg, po preincubated with compound for 30 mins followed by CFA stimulation and measured after 2 to 6 hrs relative to control. To be noted: time 2.5-6.5 hrs. Also noted: scale not given: the % may be the effect or the level left. The class given is functional.

Series [9] relates to Mus musculus. Put plainly: Antiinflammatory activity against CFA-induced paw edema in female CD1 mouse model assessed as reduction in paw swelling at 10 mg/kg, po preincubated with CFA followed by compound addition and measured after 25 to 28 hrs relative to control. The class given is functional. Also noted: scale not given: the % may be the effect or the level left. The settings on record: time 25-28 hrs.

Series [10] concerns Mus musculus. Nature of the series: Antiinflammatory activity against TPA-induced ear edema in female CD1 mouse model assessed as decrease in NLR value at 5.7 mg measured per ear administered topically incubated for 4 hrs by microscopic analysis relative to control. The class given is functional. Also noted: scale not given: the % may be the effect or the level left.
Series [11] relates to Mus musculus. Put plainly: Antiinflammatory activity against TPA-induced ear edema in female CD1 mouse model assessed as decrease in NLR value at 1 mg measured per ear administered topically incubated for 4 hrs by microscopic analysis relative to control. The series is classed as functional. On the set-up: scale not given: the % may be the effect or the level left.
The test system of series [12] is Mus musculus. Put plainly: Antiinflammatory activity against TPA-induced ear edema in female CD1 mouse model assessed as decrease in NLR value at 3 mg measured per ear administered topically incubated for 4 hrs by microscopic analysis relative to control. The class given is functional. On the set-up: scale not given: the % may be the effect or the level left.

Structures are written as SMILES. The source made the active and inactive calls. No cut-off for these calls is given here.

For the molecule `CCC(=O)OCC(C)(N[C@@H](C)c1ccccc1)P(=O)(OC)OC` (stereo partly drawn), in series [1], the “Ratio ED50” value is 0.8. The same molecule showed a lipophilicity (logP) in [2] of 3.5. The result in series [3] was inactive. Further, the figures for the Activity entry in series [4], in series [8] and in series [9] were “Dose-dependent-effect”, 47.8% and 21.7%, respectively. For the same molecule, the ED50 in series [5] was 0.66 mg. In addition, the Emax in series [6] was 85.9%. Moreover, the result in series [7] was Active.
For the molecule `COc1ccc2cc([C@H](C)C(=O)OCC(C)(N[C@@H](C)c3ccccc3)P(=O)(OC)OC)ccc2c1` (stereo partly drawn), in series [1], the “Ratio ED50” value was 2.1. In addition, the logP in series [2] came out at 4.8. Also, in [3], the result was inactive. Also, the Activity result was “Dose-dependent-effect” in series [4], 46.7% in [10], 47.8% in [8] and 21.7% in series [9]. Also, the ED50 in series [5] is 0.26 mg. In addition, the maximum response (Emax) in [6] came out at 93.9%. In [7], the outcome was Active.
On to `COP(=O)(OC)C(C)(COC(=O)c1ccccc1)NCc1ccccc1` (stereo not drawn), for which, in series [1], the “Ratio ED50” value is 1.1. Besides, the lipophilicity (logP) in series [2] amounted to 4.2. Also, in series [3], the outcome was inactive. Further, the Activity entry in series [4] is “Dose-dependent-effect”; in [8] it was 47.8%; in [9] it was 21.7%. The ED50 in series [5] stood at 0.49 mg. Besides, the Emax in series [6] amounted to 83.3%. Also, the result in series [7] was Active.
For the molecule `CCC(=O)OCC(C)(NCc1ccccc1)P(=O)(OC)OC` (stereo not drawn), the “Ratio ED50” value in [1] stood at 1.1. For the same molecule, the logP in [2] is 3.3. Also, the outcome in series [3] was inactive. In addition, the Activity result in series [4] is “Dose-dependent-effect”; in [10], 48%; in series [8] it was 47.8%; in series [9], 21.7%. The ED50 in series [5] is on record as 0.48 mg. Further, the Emax in [6] was 90.1%. Further, the result in series [7] was Active.
For `COc1ccc2c(c1)c(CC(=O)O)c(C)n2C(=O)c1ccc(Cl)cc1` [INDOMETHACIN], the Activity in series [11] is on record as 59.3%; in series [8], 58.7%; in series [9] it was 36.5%. In series [2], this molecule registered a log partition coefficient (logP) of 3.99. In addition, the outcome in series [3] was inactive. The ED50 in [5] is given as 0.54 mg. The maximum response (Emax) in [6] was determined as 89.3%. For the same molecule, the outcome in [7] was Active.
`COc1ccc2cc([C@H](C)C(=O)O)ccc2c1` [NAPROXEN]: the Activity in series [11] was 57.1%; in series [4] it was “Dose-dependent-effect”; in [8] it was 55.4%; in series [9] it was 39.8%. Also, the result in series [3] was inactive. Further, the ED50 in [5] was 0.13 mg. Also, the Emax in [6] stood at 90.6%. In addition, the outcome in series [7] was Active.
With `COc1ccc2cc([C@H](C)C(=O)OCC(C)(NCc3ccccc3)P(=O)(OC)OC)ccc2c1` (stereo partly drawn), the “Ratio ED50” value in series [1] was 1. Besides, the log partition coefficient (logP) in series [2] turned out to be 4.5. For the same molecule, in [3], the outcome was inactive. In addition, the Activity entry was “Dose-dependent-effect” in [4], 47.8% in series [8] and 21.7% in [9]. The ED50 in series [5] is listed as 0.53 mg. In [6], the maximal effect (Emax) came out at 84.8%. Besides, the result in series [7] was Active.
As for `COP(=O)(OC)C(C)(COC(=O)c1ccccc1)N[C@@H](C)c1ccccc1` (stereo partly drawn), the Activity in series [12] was 64.7%; in series [4], “Dose-dependent-effect”; in [8], 47.8%; in series [9], 21.7%. Moreover, the “Ratio ED50” value in series [1] is reported as 1.2. This molecule came in with a lipophilicity (logP) in [2] of 4.4. Further, the result in series [3] was inactive. Besides, the ED50 in series [5] is reported as 0.46 mg. Also, in series [6], the maximum response (Emax) was 91.8%. For the same molecule, in series [7], the result was Active.

As a reminder, the logP is the decadic logarithm of the partition coefficient of the neutral form, usually between octanol and water. A word on the Emax: it is the greatest response seen or fitted, relative to the assay's reference.
